Values quoted from earlier work in patent US11065250B2, “Solid dosage forms of palbociclib” (PFIZER INC., priority 2015, dated 2021).
Like-named read-outs stand apart in the source and are kept apart here.

Columns and labels:
[1] = low pH (2.1-4.5)

solubility in words [1]: water soluble
pKa (pyridine nitrogen): ~4.1
pKa (secondary piperazine nitrogen): approximately 7.3
pKa (pyridine nitrogen) (listed as palbociclib): approximately 4.1
pKa (secondary piperazine nitrogen) (listed as palbociclib): ~7.3
SMILES: CC(=O)c1c(C)c2cnc(Nc3ccc(N4CCNCC4)cn3)nc2n(C2CCCC2)c1=O [Palbociclib, 6-acetyl-8-cyclopentyl-5-methyl-2-(5-piperazin-1-yl-pyridin-2-ylamino)-8H-pyrido[2,3-d]pyrimidin-7-one]
